Measurements from paper PMC5130005, “Indolin-2-one compounds targeting thioredoxin reductase as potential anticancer drug leads” (Oncotarget, 2016).

What was measured:
TrxR in HCT 116 cells = target: T1, TrxR in HCT 116 cells (Homo sapiens, UniProt Q16881); test: cellular TrxR activity in HCT 116 cell lysates (insulin reduction assay); format: cell-based; conditions: for cellular TrxR activity, HCT 116 cells: 10 h treatment, 20, 30, 40 and 50 μM
T1 construct: Lysates of HCT 116 cells treated with indicated concentrations of selected SCA analogs for 10 h; endogenous in cells; host or cells: HCT 116
T1 sequence (Q16881 1-499 isoform Q16881-5): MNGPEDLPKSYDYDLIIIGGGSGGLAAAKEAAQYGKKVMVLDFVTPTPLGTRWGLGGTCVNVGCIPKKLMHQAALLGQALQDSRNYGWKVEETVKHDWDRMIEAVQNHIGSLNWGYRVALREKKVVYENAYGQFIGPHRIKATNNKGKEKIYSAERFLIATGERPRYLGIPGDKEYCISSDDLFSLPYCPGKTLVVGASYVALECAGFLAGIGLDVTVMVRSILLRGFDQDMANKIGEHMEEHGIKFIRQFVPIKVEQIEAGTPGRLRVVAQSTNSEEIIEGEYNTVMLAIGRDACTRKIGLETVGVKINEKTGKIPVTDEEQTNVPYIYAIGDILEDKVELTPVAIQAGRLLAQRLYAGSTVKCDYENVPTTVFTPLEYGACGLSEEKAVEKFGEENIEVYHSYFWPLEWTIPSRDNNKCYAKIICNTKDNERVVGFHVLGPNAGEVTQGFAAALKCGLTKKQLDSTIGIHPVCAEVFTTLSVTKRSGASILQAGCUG
Procedure: Cells were seeded onto 100 mm or 60 mm culture plates and upon reaching ~70% confluency, they were subjected to drug treatment for indicated durations. Pellets of compound-treated or DMSO control cells comprising both attached and floating cells were collected and lysed in lysis buffer (25 mM Tris-HCl pH 7.5, 100 mM NaCl, 2.5 mM EDTA, 2.5 mM EGTA, 20 mM NaF, 1 mM Na3VO4, 20 mM sodium β-glycerophosphate, 10 mM sodium pyrophosphate, 0.5% Triton X-100) with freshly added protease inhibitor cocktail (Roche Diagnostics). Prior to being used in Western blot analysis and/or cellular TrxR, GR, Trx and GPx activity determination, lysates were precleared by centrifugation and protein concentrations were determined using a modified Bradford assay (Bio-Rad Laboratories) as described in the manufacturer's manual. This procedure for collecting whole cell lysate was used for all experiments except for the Trx-redox state determination experiment. Equal amounts of protein (50 μg) in each lysate sample were separated by SDS-PAGE, followed by electroblotting onto nitrocellulose membranes. Electroblotted proteins on membranes were probed with a primary antibody and subsequently by a secondary antibody conjugated to HRP.
Freshly collected cell lysates were used for measurement of activity of cellular Trx and TrxR. To measure TrxR activity, in each well of a 96-well plate, 25 μg of cell lysate was incubated in a final volume of 50 μl containing 85 mM Hepes (pH 7.6), 0.3 mM insulin, 10 μM rhTrx1, 2.5 mM EDTA and 660 μM NADPH for 40 min at 37°C. Controls containing lysates and all reaction reagents except rhTrx1 for each lysate sample were also set up. 200 μl of 1 mM DTNB in 6 M guanidine-HCl, 200 mM Tris-HCl pH 8.0 solution was added to quench the reaction. The amount of free thiols generated from insulin reduction was determined by DTNB reduction at 412 nm using the VersaMax microplate reader. To measure Trx activity, procedures were carried out similar to those for determining cellular TrxR activity, except that the cell lysates were incubated for 20 min with 300 nM recombinant rat TrxR in place of rhTrx1. Controls containing lysates and all reaction reagents except recombinant rat TrxR for each lysate sample were also set up. For each sample, Trx or TrxR activity was calculated as the absorbance at 412 nm subtracted from that of the corresponding control and expressed as a percentage of the activity measured in DMSO-treated cells.

HCT 116 cells = test: ROS determination (carboxy-H2DCFDA, DCF fluorescence); format: cell-based, human; conditions: 50 μM, 3 h, versus DMSO control
Procedure: Oxidative stress was assessed through estimating the level of ROS using the H2DCFDA assay with modifications. Briefly, HCT 116 cells were seeded in 6-well plates and incubated for 24-48 h at 37°C till 70-80% confluency. They were treated with H2O2 (200 μM) or compounds 4 and 5 (20, 30, 40 or 50 μM) for 3 h. Following treatment, cells were washed with PBS and incubated with 10 μM carboxy-H2DCFDA in PBS at 37°C in the dark for 45 min to allow reaction between taken up H2DCF and ROS. The cells were collected, washed with cold PBS, pelleted, resuspended in 200 μl of PBS and transferred to wells in a 96-well black fluorescence plate. The fluorescence intensities were measured at an excitation wavelength of 485 nm and an emission wavelength of 530 nm using a Tecan Infinite M200 Pro microplate reader. The results were expressed as a percentage of fluorescence intensities measured in drug-treated cells over those produced in DMSO-treated cells.

Row | SMILES | cellular TrxR activity, HCT 116 cells (TrxR in HCT 116 cells) | DCF fluorescence (cellular oxidative stress) (HCT 116 cells) | cellular TrxR activity at 40 and 50 μM, HCT 116 cells (TrxR in HCT 116 cells; 10 h treatment, 40 and 50 μM, p < 0.05 vs DMSO)
1 | CC(=O)C=C1C(=O)N(C)c2ccccc21 [Compound 1, 1-methyl-3(2-oxopropylidene)indolin-2-one] | did not cause apparent inhibition | – | –
2 | CCCCN1C(=O)/C(=C/C(C)=O)c2ccccc21 [Compound 4] | decrease in TrxR activity in a dose-dependent manner | markedly increased DCF fluorescence | –
3 | CC(=O)/C=C1/C(=O)N(Cc2ccccc2)c2ccccc21 [Compound 5] | decrease in TrxR activity in a dose-dependent manner | markedly increased DCF fluorescence | significant reduction
4 | CN1C(=O)/C(=C/C(=O)c2ccccc2)c2ccccc21 [Compound 6] | did not cause apparent inhibition | – | –
